From patent US12384770B2, “Heterocyclic compound” (Takeda Pharmaceutical Company Limited, priority 2019, dated 2025) come the findings set out here.

This assay deals with T1, HDAC6 enzyme (Homo sapiens, UniProt Q9UBN7).
T1 construct: HDAC6 enzyme prepared by transducing full length HDAC6 gene into Sf-9 insect cells; GST; purchased SignalChem; host or cells: Sf-9 insect cells
T1 sequence (Q9UBN7 1-1215): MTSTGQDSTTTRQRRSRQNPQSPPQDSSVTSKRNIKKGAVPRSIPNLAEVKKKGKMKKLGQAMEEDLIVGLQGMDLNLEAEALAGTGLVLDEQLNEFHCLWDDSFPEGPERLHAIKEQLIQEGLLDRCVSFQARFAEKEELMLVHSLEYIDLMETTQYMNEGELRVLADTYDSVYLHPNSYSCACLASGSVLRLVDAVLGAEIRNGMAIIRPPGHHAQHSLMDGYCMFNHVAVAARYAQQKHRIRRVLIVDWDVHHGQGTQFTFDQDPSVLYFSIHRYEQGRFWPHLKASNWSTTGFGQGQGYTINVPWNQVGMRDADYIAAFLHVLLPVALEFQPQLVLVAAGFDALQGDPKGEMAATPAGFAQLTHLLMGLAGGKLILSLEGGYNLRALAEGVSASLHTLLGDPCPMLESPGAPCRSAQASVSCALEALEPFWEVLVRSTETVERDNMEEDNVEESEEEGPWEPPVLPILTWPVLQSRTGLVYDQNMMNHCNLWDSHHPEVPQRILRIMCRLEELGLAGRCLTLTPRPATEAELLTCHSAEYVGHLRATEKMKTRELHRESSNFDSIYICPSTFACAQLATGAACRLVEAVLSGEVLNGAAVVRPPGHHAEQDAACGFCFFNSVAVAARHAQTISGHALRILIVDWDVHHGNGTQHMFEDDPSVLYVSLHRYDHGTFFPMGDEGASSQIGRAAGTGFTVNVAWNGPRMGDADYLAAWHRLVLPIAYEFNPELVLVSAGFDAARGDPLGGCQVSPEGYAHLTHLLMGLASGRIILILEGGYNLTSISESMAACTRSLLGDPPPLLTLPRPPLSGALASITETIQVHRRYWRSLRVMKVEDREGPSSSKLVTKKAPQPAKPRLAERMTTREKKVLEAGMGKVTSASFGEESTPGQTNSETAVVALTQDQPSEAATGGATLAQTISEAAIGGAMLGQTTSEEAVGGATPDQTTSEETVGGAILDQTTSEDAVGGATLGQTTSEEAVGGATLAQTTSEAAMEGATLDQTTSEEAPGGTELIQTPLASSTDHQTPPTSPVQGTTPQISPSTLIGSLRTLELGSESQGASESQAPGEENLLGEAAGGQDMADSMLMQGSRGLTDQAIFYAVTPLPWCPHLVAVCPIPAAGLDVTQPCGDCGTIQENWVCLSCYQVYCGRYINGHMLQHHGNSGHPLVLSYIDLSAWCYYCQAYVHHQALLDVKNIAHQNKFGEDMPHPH
In words: HDAC6 enzyme inhibitory assay (HDAC-Glo I/II Assay kit). The format is biochemical. The conditions noted are these: wells without enzyme = 100% inhibition, read-out: HDAC6 inhibitory rate (%) (10 μM). The protocol: Experimental Example 1 HDAC6 Enzyme Inhibitory Assay
HDAC6 enzyme prepared by transducing full length HDAC6 gene into Sf-9 insect cells and purifying by GST affinity column were purchased from SignalChem. Using this enzyme, HDAC6 enzyme inhibitory activity of the compound of the present invention were evaluated. Enzymes were used after preserved at −70° C. HDAC6 enzyme inhibitory activity of the compound of the present invention was measured using HDAC-Glo™ I/II Assay kit (Promega) according to the following experimental method. The test compound diluted with assay buffer (24 mM Tris-HCl (pH 7.5), 1 mM MgCl2, 0.35 mM KCl, 135 mM NaCl, 0.6 mM Glutathione, 0.01% Tween-20) was added to a 384-well plate by each 2 μL. Then, HDAC6 enzyme solution diluted with assay buffer was added thereto by each 4 μL, and the plate was incubated at room temperature for 60 min. After incubated, HDAC substrate-Developer solution prepared according to Promega protocol attached to the assay kit was added to the 384-well plate by each 2 μL, and the enzyme reaction was started. After reacting at room temperature for 20 min, luminescence level was measured using plate reader Envision (PerkinElmer). The inhibitory activity of each compound of Example was calculated as a relative activity value when luminescence level in wells without enzyme is considered as 100% inhibition.
For the compound `O=C1c2cc(-c3nnc(C(F)F)o3)ccc2CN1[C@H](c1cc(F)c(F)c(F)c1)[C@@H](O)c1ccccn1` (racemic) [Example 15, 6-[5-(difluoromethyl)-1,3,4-oxadiazol-2-yl]-2-[(1RS,2RS)-2-hydroxy-2-(pyridin-2-yl)-1-(3,4,5-trifluorophenyl)ethyl]-2,3-dihydro-1H-isoindol-1-one], the inhibition at 10 µM was 99%.

Consider `O=C1c2cc(-c3nnc(C(F)F)o3)ccc2CN1[C@H](c1ccc(F)cc1)[C@@H](O)c1cccc(F)c1` (racemic) [Example 16, 6-[5-(difluoromethyl)-1,3,4-oxadiazol-2-yl]-2-[(1RS,2SR)-2-(3-fluorophenyl)-1-(4-fluorophenyl)-2-hydroxyethyl]-2,3-dihydro-1H-isoindol-1-one], for which the inhibition at 10 µM was determined as 99%.

Consider `O=C1c2cc(-c3nnc(C(F)F)o3)ccc2CN1[C@H](c1ccc(C(F)(F)F)nc1)[C@@H](O)c1ccccc1` (racemic) [Example 17, 6-[5-(difluoromethyl)-1,3,4-oxadiazol-2-yl]-2-{(1RS,2SR)-2-hydroxy-2-phenyl-1-[6-(trifluoromethyl)pyridin-3-yl]ethyl}-2,3-dihydro-1H-isoindol-1-one], for which the inhibition at 10 µM amounted to 100%.

As to `O=C1c2cc(-c3nnc(C(F)F)o3)ccc2CN1[C@H](c1ccc(C(F)(F)F)nc1)[C@@H](O)c1ccc(F)cc1` (racemic) [Example 18, 6-[5-(difluoromethyl)-1,3,4-oxadiazol-2-yl]-2-{(1RS,2SR)-2-(4-fluorophenyl)-2-hydroxy-1-[6-(trifluoromethyl)pyridin-3-yl]ethyl}-2,3-dihydro-1H-isoindol-1-one], the inhibition at 10 µM is 99%.

For the compound `O=C1c2cc(-c3nnc(C(F)F)o3)ccc2CN1[C@H](c1ccc(F)cc1)[C@@H](O)C1CC1` (racemic) [Example 19, 2-[(1RS,2SR)-2-cyclopropyl-1-(4-fluorophenyl)-2-hydroxyethyl]-6-[5-(difluoromethyl)-1,3,4-oxadiazol-2-yl]-2,3-dihydro-1H-isoindol-1-one], the inhibition at 10 µM was 99%.

As to `O=C1c2cc(-c3nnc(C(F)F)o3)ccc2CN1[C@H](c1cccc(F)c1)[C@@H](O)c1ccccc1` (racemic) [Example 20, 6-[5-(difluoromethyl)-1,3,4-oxadiazol-2-yl]-2-[(1RS,2SR)-1-(3-fluorophenyl)-2-hydroxy-2-phenylethyl]-2,3-dihydro-1H-isoindol-1-one], the inhibition at 10 µM turned out to be 100%.

As for `O=C1c2cc(-c3nnc(C(F)F)o3)ccc2CN1[C@H](c1cccc(F)c1)[C@@H](O)c1ccc(F)cc1` (racemic) [Example 21, 6-[5-(difluoromethyl)-1,3,4-oxadiazol-2-yl]-2-[(1RS,2SR)-1-(3-fluorophenyl)-2-(4-fluorophenyl)-2-hydroxyethyl]-2,3-dihydro-1H-isoindol-1-one], the inhibition at 10 µM was 100%.

On to `O=C1c2cc(-c3nnc(C(F)F)o3)ccc2CN1[C@H](c1ccccc1)[C@@H](O)c1ccc(F)cc1` (racemic) [Example 22, 6-[5-(difluoromethyl)-1,3,4-oxadiazol-2-yl]-2-[(1RS,2SR)-2-(4-fluorophenyl)-2-hydroxy-1-phenylethyl]-2,3-dihydro-1H-isoindol-1-one], for which the inhibition at 10 µM was determined as 99%.

With `O=C1c2cc(-c3nnc(C(F)F)o3)ccc2CN1[C@H](c1ccccc1)[C@@H](O)c1cccc(F)c1` (racemic) [Example 23, 6-[5-(difluoromethyl)-1,3,4-oxadiazol-2-yl]-2-[(1RS,2SR)-2-(3-fluorophenyl)-2-hydroxy-1-phenylethyl]-2,3-dihydro-1H-isoindol-1-one], the inhibition at 10 µM stood at 100%.

As for `O=C1c2cc(-c3nnc(C(F)F)o3)ccc2CN1[C@H](c1cccc(C(F)(F)F)c1)[C@@H](O)c1ccccn1` (racemic) [Example 24, 6-[5-(difluoromethyl)-1,3,4-oxadiazol-2-yl]-2-{(1RS,2RS)-2-hydroxy-2-(pyridin-2-yl)-1-[3-(trifluoromethyl)phenyl]ethyl}-2,3-dihydro-1H-isoindol-1-one], the inhibition at 10 µM stood at 99%.

On to `O=C1c2cc(-c3nnc(C(F)F)o3)ccc2CN1[C@H](c1ccccc1)[C@@H](O)C1CCC(F)(F)CC1` (racemic) [Example 25, 2-[(1RS,2SR)-2-(4,4-difluorocyclohexyl)-2-hydroxy-1-phenylethyl]-6-[5-(difluoromethyl)-1,3,4-oxadiazol-2-yl]-2,3-dihydro-1H-isoindol-1-one], for which the inhibition at 10 µM amounted to 100%.

`O=C1c2cc(-c3nnc(C(F)F)o3)ccc2CN1[C@H](c1ccc(C(F)(F)F)cc1)[C@@H](O)c1ccccn1` (racemic) [Example 26, 6-[5-(difluoromethyl)-1,3,4-oxadiazol-2-yl]-2-{(1RS,2RS)-2-hydroxy-2-(pyridin-2-yl)-1-[4-(trifluoromethyl)phenyl]ethyl}-2,3-dihydro-1H-isoindol-1-one]: the inhibition at 10 µM is 99%.

`O=C1c2cc(-c3nnc(C(F)F)o3)ccc2CN1[C@H](c1ccccc1F)[C@@H](O)c1ccccc1` (racemic) [Example 27, 6-[5-(difluoromethyl)-1,3,4-oxadiazol-2-yl]-2-[(1RS,2SR)-1-(2-fluorophenyl)-2-hydroxy-2-phenylethyl]-2,3-dihydro-1H-isoindol-1-one]: the inhibition at 10 µM stood at 101%.

As to `O=C1c2cc(-c3nnc(C(F)F)o3)ccc2CN1[C@H](c1ccccc1F)[C@@H](O)c1ccc(F)cc1` (racemic) [Example 28, 6-[5-(difluoromethyl)-1,3,4-oxadiazol-2-yl]-2-[(1RS,2SR)-1-(2-fluorophenyl)-2-(4-fluorophenyl)-2-hydroxyethyl]-2,3-dihydro-1H-isoindol-1-one], the inhibition at 10 µM amounted to 99%.

Take `O=C1c2cc(-c3nnc(C(F)F)o3)ccc2CN1[C@H](c1ccc(F)cc1)[C@@H](O)c1ccccc1F` (racemic) [Example 29, 6-[5-(difluoromethyl)-1,3,4-oxadiazol-2-yl]-2-[(1RS,2SR)-2-(2-fluorophenyl)-1-(4-fluorophenyl)-2-hydroxyethyl]-2,3-dihydro-1H-isoindol-1-one]: the inhibition at 10 µM is 99%.

Turning to `O=C1c2cc(-c3nnc(C(F)F)o3)ccc2CN1[C@H](c1ccc(F)cc1)[C@@H](O)C1CCOCC1` (racemic) [Example 30, 6-[5-(difluoromethyl)-1,3,4-oxadiazol-2-yl]-2-[(1RS,2SR)-1-(4-fluorophenyl)-2-hydroxy-2-(oxan-4-yl)ethyl]-2,3-dihydro-1H-isoindol-1-one], the inhibition at 10 µM was 99%.

Regarding `O=C1c2cc(-c3nnc(C(F)F)o3)ccc2CN1[C@H](c1ccc(F)cc1F)[C@@H](O)c1ccccn1` (racemic) [Example 31, 6-[5-(difluoromethyl)-1,3,4-oxadiazol-2-yl]-2-[(1RS,2RS)-1-(2,4-difluorophenyl)-2-hydroxy-2-(pyridin-2-yl)ethyl]-2,3-dihydro-1H-isoindol-1-one], the inhibition at 10 µM is 97%.

For the compound `O=C1c2cc(-c3nnc(C(F)F)o3)ccc2CN1[C@H](c1ccccc1C(F)(F)F)[C@@H](O)c1ccccn1` (racemic) [Example 39, 6-[5-(difluoromethyl)-1,3,4-oxadiazol-2-yl]-2-{(1RS,2RS)-2-hydroxy-2-(pyridin-2-yl)-1-[2-(trifluoromethyl)phenyl]ethyl}-2,3-dihydro-1H-isoindol-1-one], the inhibition at 10 µM amounted to 101%.
